Assay results taken from patent publication US12428420B2, “Tricyclic heterocycles as FGFR inhibitors” (Incyte Corporation, priority 2021, dated 2025).

Key:
[1] = target: wild-type un-phosphorylated FGFR3 protein (Homo sapiens, UniProt P22607); assay: FGFR Enzymatic Assay (FRET peptide phosphorylation); type: biochemical; conditions: pre-incubated for 4 hours
Protocol: The inhibitor potency of the exemplified compounds was determined in an enzyme discontinuous assay that measures peptide phosphorylation using FRET measurements to detect product formation. Inhibitors were serially diluted in DMSO and a volume of 0.2 μL was transferred to the wells of a 384-well plate. A 5 μL/well volume of enzyme isoforms of FGFR (-1, -2, -3 wild-type and mutant isoforms, -4) including phosphorylated and un-phosphorylated proteins diluted in assay buffer (50 mM HEPES, 10 mM MgCl2, 1 mM EGTA, 0.01% Tween-20, 5 mM DTT, pH 7.5) was added to the plate and pre-incubated with inhibitor for 5 to 15 minutes at ambient temperature. Appropriate controls (enzyme blank and enzyme with no inhibitor) were included on the plate. The reaction was initiated by the addition of a 5 μL/well volume containing both biotinylated [sequence] peptide substrate (SEQ ID NO: 1) and ATP in assay buffer. The 10 μL/well reaction concentration of the peptide substrate was 500 nM whereas the ATP concentration was maintained near or below the ATP Km. The ATP Km values were pre-determined in a separate series of experiments. The reaction plate was incubated at 25° C. for 1 hr and the reactions were ended with the addition of 5 μL/well of quench solution (50 mM Tris, 150 mM NaCl, 0.5 mg/mL BSA, pH 7.8; 45 mM EDTA, 600 nM staurosporin, with Perkin Elmer Lance Reagents at 3.75 nM Eu-antibody PY20 and 180 nM APC-Streptavidin). The plate was allowed to equilibrate for ˜10 minutes at ambient temperature before scanning on a PheraStar plate reader (BMG Labtech) instrument.
Either GraphPad prism or XLfit was used to analyze the data. The IC50 values were derived by fitting the data to a four parameter logistic equation producing a sigmoidal dose-response curve with a variable Hill coefficient. Prism equation: Y=Bottom+(Top−Bottom)/(1+10^((Log IC50−X)*Hill slope)); XLfit equation: Y=(A+((B−A)/(1+((X/C)^D)))) where X is the logarithm of inhibitor concentration and Y is the response.

RT-112/84 cell line = assay: Luminescent Viability Assay (CellTiter-Glo); type: cell-based; conditions: RT-112/84 cell line (bladder, FGFR3-TACC3), 3 days
Protocol: RT112 cells (cell lines and genetic profiles further detailed in Table 2) were purchased from ATCC (Manassas, VA) and maintained in RPMI, 10% FBS (Gibco/Life Technologies). To measure the effect of test compounds on the viability of cells, the cells were plated with RPMI 10% FBS (5×10^3 cells/well/in 50 μL) into black 96-well Greiner polystyrene in the presence or absence of 50 μL of a concentration range of test compounds. After 3 days, 100 μL of CellTiter-Glo Reagent (Promega) was added. Luminescence was read with a TopCount (PerkinElmer). IC50 determination was performed by fitting the curve of percent inhibition versus the log of the inhibitor concentration using the GraphPad Prism 5.0 software.

Chain of wild-type un-phosphorylated FGFR3 protein (P22607 23-806): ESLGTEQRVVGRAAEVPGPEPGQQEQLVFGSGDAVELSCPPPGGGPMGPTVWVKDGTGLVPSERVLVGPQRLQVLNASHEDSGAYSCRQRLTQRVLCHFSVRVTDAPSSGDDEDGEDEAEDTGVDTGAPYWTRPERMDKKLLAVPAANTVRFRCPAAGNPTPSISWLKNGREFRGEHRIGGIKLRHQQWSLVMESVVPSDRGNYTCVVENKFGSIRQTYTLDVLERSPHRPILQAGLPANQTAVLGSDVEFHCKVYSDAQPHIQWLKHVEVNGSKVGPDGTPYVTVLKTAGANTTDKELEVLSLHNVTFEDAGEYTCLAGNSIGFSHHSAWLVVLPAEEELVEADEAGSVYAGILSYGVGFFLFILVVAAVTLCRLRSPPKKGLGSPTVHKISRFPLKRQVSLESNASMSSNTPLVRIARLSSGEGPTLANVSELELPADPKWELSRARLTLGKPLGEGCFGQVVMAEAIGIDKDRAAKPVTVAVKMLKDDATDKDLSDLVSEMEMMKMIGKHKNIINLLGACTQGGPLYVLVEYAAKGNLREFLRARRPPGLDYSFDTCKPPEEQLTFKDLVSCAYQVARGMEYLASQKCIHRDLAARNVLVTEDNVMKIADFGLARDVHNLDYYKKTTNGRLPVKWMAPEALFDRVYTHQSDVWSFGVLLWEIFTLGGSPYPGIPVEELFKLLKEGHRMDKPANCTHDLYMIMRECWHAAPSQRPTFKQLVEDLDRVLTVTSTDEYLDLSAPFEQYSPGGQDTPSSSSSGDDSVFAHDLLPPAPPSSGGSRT

| Structure (SMILES) | IC50 [1] | IC50 (RT-112/84 cell line; Homo sapiens, RT112/84, 72 h) | IC50 (RT-112/84 cell line) |
| --- | --- | --- | --- |
| CC(C#N)n1cc(-c2cnc3ccn4c(CO)c(-c5c(Cl)cccc5Cl)nc4c3c2)cn1 (single isomer, unassigned) [17 peak 1] | < 1 nM | < 10 nM | – |
| CC(C#N)n1cc(-c2cnc3ccn4c(CO)c(-c5c(Cl)cccc5Cl)nc4c3c2)cn1 (single isomer, unassigned) [17 peak 2] | < 1 nM | – | < 10 nM |
| CC(O)Cn1cc(-c2cnc3ccn4c(CO)c(-c5c(Cl)cccc5Cl)nc4c3c2)cn1 (single isomer, unassigned) [18 peak 1] | 1 to 5 nM | 10 to 50 nM | – |
| CC(CC#N)n1cc(-c2cnc3ccn4c(CO)c(-c5c(Cl)cccc5Cl)nc4c3c2)cn1 (single isomer, unassigned) [23 peak 1] | < 1 nM | 10 to 50 nM | – |
| CC(CC#N)n1cc(-c2cnc3ccn4c(CO)c(-c5c(Cl)cccc5Cl)nc4c3c2)cn1 (single isomer, unassigned) [23 peak 2] | < 1 nM | – | 10 to 50 nM |
| O=S1(=O)CCCC(n2cc(-c3cnc4ccn5c(CO)c(-c6c(Cl)cccc6Cl)nc5c4c3)cn2)C1 (single isomer, unassigned) [26 peak 1] | 1 to 5 nM | 10 to 50 nM | – |
| O=S1(=O)CCCC(n2cc(-c3cnc4ccn5c(CO)c(-c6c(Cl)cccc6Cl)nc5c4c3)cn2)C1 (single isomer, unassigned) [26 peak 2] | < 1 nM | – | < 10 nM |
| O=C(c1ccc(-c2cnc3ccn4c(CO)c(-c5c(Cl)cccc5Cl)nc4c3c2)cc1)N1CCOCC1 [Example 6, (4-(2-(2,6-Dichlorophenyl)-3-(hydroxymethyl)imidazo[2,1-f][1,6]naphthyridin-9-yl)phenyl)(morpholino)methanone] | 1 to 5 nM | 10 to 50 nM | – |
| O=C(c1ccc(-c2cnc3ccn4c(CO)c(-c5c(Cl)cccc5Cl)nc4c3c2)cc1)N1C[C@@H]2C[C@H]1CO2 [Example 7, ((1S,4S)-2-Oxa-5-azabicyclo[2.2.1]heptan-5-yl)(4-(2-(2,6-dichlorophenyl)-3-(hydroxymethyl)imidazo[2,1-f][1,6]naphthyridin-9-yl)phenyl)methanone] | 1 to 5 nM | 10 to 50 nM | – |
| O=C(CO)N1CCN(Cc2ccc(-c3cnc4ccn5c(CO)c(-c6c(Cl)cccc6Cl)nc5c4c3)cc2)CC1 [Example 8, 1-(4-(4-(2-(2,6-Dichlorophenyl)-3-(hydroxymethyl)imidazo[2,1-f][1,6]naphthyridin-9-yl)benzyl)piperazin-1-yl)-2-hydroxyethan-1-one] | 1 to 5 nM | 10 to 50 nM | – |
| CC(=O)N1CCN(Cc2ccc(-c3cnc4ccn5c(CO)c(-c6c(Cl)cccc6Cl)nc5c4c3)cc2)CC1 [Example 9, 1-(4-(4-(2-(2,6-Dichlorophenyl)-3-(hydroxymethyl)imidazo[2,1-f][1,6]naphthyridin-9-yl)benzyl)piperazin-1-yl)ethan-1-one] | 1 to 5 nM | 10 to 50 nM | – |
| O=C(CO)N1CCN(c2ccc(-c3cnc4ccn5c(CO)c(-c6c(Cl)cccc6Cl)nc5c4c3)cc2)CC1 [Example 10, 1-(4-(4-(2-(2,6-Dichlorophenyl)-3-(hydroxymethyl)imidazo[2,1-f][1,6]naphthyridin-9-yl)phenyl)piperazin-1-yl)-2-hydroxyethan-1-one] | 1 to 5 nM | 10 to 50 nM | – |
| Cc1cccc(Cl)c1-c1nc2c3cc(-c4cnn(C5CCN(C)CC5)c4)cnc3ccn2c1CO [Example 11, (2-(2-Chloro-6-methylphenyl)-9-(1-(1-methylpiperidin-4-yl)-1H-pyrazol-4-yl)imidazo[2,1-J][1,6]naphthyridin-3-yl)methanol] | 1 to 5 nM | 10 to 50 nM | – |
| Cc1c(-c2c(Cl)cccc2Cl)nc2c3cc(-c4cnn(C5CN(C(=O)c6cn(C)nn6)C5)c4)cnc3ccn12 [Example 13, (3-(4-(2-(2,6-Dichlorophenyl)-3-methylimidazo[2,1-J][1,6]naphthyridin-9-yl)-1H-pyrazol-1-yl)azetidin-1-yl)(1-methyl-1H-1,2,3-triazol-4-yl)methanone] | 1 to 5 nM | 10 to 50 nM | – |
| Cc1c(-c2c(Cl)cccc2Cl)nc2c3cc(-c4cnn(C5CN(C(=O)c6nnn(C)n6)C5)c4)cnc3ccn12 [Example 14, (3-(4-(2-(2,6-Dichlorophenyl)-3-methylimidazo[2,1-J][1,6]naphthyridin-9-yl)-1H-pyrazol-1-yl)azetidin-1-yl)(2-methyl-2H-tetrazol-5-yl)methanone] | 1 to 5 nM | 10 to 50 nM | – |
| CC(C)(C#N)n1cc(-c2cnc3ccn4c(CO)c(-c5c(Cl)cccc5Cl)nc4c3c2)cn1 [Example 16, 2-(4-(2-(2,6-Dichlorophenyl)-3-(hydroxymethyl)imidazo[2,1-f][1,6]naphthyridin-9-yl)-1H-pyrazol-1-yl)-2-methylpropanenitrile] | 1 to 5 nM | 10 to 50 nM | – |

Further lines, with some results ahead:

| IC50 [1] | Structure (SMILES) | IC50 (RT-112/84 cell line; Homo sapiens, RT112/84, 72 h) | IC50 (RT-112/84 cell line) |
| --- | --- | --- | --- |
| 1 to 5 nM | CC(O)Cn1cc(-c2cnc3ccn4c(CO)c(-c5c(Cl)cccc5Cl)nc4c3c2)cn1 (single isomer, unassigned) [18 peak 2] | – | 10 to 50 nM |
| 1 to 5 nM | OCc1c(-c2c(Cl)cccc2Cl)nc2c3cc(-c4cnn(Cc5ccncn5)c4)cnc3ccn12 [Example 1, (2-(2,6-Dichlorophenyl)-9-(1-(pyrimidin-4-ylmethyl)-1H-pyrazol-4-yl)imidazo[2,1-J][1,6]naphthyridin-3-yl)methanol] | 10 to 50 nM | – |
| < 1 nM | N#Cc1cncc(Cn2cc(-c3cnc4ccn5c(CO)c(-c6c(Cl)cccc6Cl)nc5c4c3)cn2)c1 [Example 2, 5-((4-(2-(2,6-Dichlorophenyl)-3-(hydroxymethyl)imidazo[2,1-f][1,6]naphthyridin-9-yl)-1H-pyrazol-1-yl)methyl)nicotinonitrile] | 10 to 50 nM | – |
| < 1 nM | N#Cc1ccc(Cn2cc(-c3cnc4ccn5c(CO)c(-c6c(Cl)cccc6Cl)nc5c4c3)cn2)cn1 [Example 3, 5-((4-(2-(2,6-Dichlorophenyl)-3-(hydroxymethyl)imidazo[2,1-f][1,6]naphthyridin-9-yl)-1H-pyrazol-1-yl)methyl)picolinonitrile] | < 10 nM | – |
| < 1 nM | N#Cc1cc(Cn2cc(-c3cnc4ccn5c(CO)c(-c6c(Cl)cccc6Cl)nc5c4c3)cn2)ccn1 [Example 4, 4-((4-(2-(2,6-Dichlorophenyl)-3-(hydroxymethyl)imidazo[2,1-f][1,6]naphthyridin-9-yl)-1H-pyrazol-1-yl)methyl)picolinonitrile] | < 10 nM | – |
| 1 to 5 nM | OCc1c(-c2c(Cl)cccc2Cl)nc2c3cc(-c4cnn(Cc5ccnc(C(F)(F)F)c5)c4)cnc3ccn12 [Example 5, (2-(2,6-Dichlorophenyl)-9-(1-((2-(trifluoromethyl)pyridin-4-yl)methyl)-1H-pyrazol-4-yl)imidazo[2,1-f][1,6]naphthyridin-3-yl)methanol] | < 10 nM | – |
| < 1 nM | CN(C)C(=O)c1ccc(Cn2cc(-c3cnc4ccn5c(CO)c(-c6c(Cl)cccc6Cl)nc5c4c3)cn2)cn1 [Example 12, 5-((4-(2-(2,6-Dichlorophenyl)-3-(hydroxymethyl)imidazo[2,1-f][1,6]naphthyridin-9-yl)-1H-pyrazol-1-yl)methyl)-N,N-dimethylpicolinamide] | < 10 nM | – |
| 1 to 5 nM | CCn1cc(-c2cnc3ccn4c(CO)c(-c5c(Cl)cccc5Cl)nc4c3c2)cn1 [Example 15, (2-(2,6-Dichlorophenyl)-9-(1-ethyl-1H-pyrazol-4-yl)imidazo[2,1-f][1,6]naphthyridin-3-yl)methanol] | < 10 nM | – |
